Results taken from ChEMBL document CHEMBL4177711, “Synthesis, in vitro and in silico evaluation of novel trans-stilbene analogues as potential COX-2 inhibitors” (Bioorg Med Chem, 2018).

What was measured:
[1] = molecular target: T1, COX1 (Prostaglandin G/H synthase 1) (Ovis aries, UniProt P05979); experiment: Inhibition of ovine COX1 assessed as reduction in PGF2alpha level at 100 uM using arachidonic acid as substrate preincubated for 10 mins followed by substrate addition by ELISA relative to control; conditions: sheep, ovine COX1 enzyme, probe arachidonic acid
T1 sequence (P05979 whole entry): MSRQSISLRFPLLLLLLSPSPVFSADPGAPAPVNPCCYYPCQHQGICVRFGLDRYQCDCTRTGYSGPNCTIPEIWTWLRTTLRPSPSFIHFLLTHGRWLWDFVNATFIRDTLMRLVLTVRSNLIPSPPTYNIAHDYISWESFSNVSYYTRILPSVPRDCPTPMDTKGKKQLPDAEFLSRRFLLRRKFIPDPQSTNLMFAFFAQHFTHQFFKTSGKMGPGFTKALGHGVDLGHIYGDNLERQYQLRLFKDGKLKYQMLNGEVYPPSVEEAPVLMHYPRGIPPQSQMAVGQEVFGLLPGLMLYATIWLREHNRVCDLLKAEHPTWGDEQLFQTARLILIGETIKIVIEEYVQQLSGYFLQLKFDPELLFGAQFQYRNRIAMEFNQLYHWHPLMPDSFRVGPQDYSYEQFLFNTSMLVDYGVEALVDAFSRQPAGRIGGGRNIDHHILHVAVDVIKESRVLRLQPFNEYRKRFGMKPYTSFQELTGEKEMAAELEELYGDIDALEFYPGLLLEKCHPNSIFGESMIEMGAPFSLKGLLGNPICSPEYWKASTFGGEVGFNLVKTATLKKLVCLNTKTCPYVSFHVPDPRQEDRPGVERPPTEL

[2] = molecular target: T2, Prostaglandin G/H synthase 2 (Homo sapiens) (UniProt P35354); experiment: Inhibition of human COX2 assessed as reduction in PGF2alpha level at 100 uM using arachidonic acid as substrate preincubated for 10 mins followed by substrate addition by ELISA relative to control
T2 sequence (whole entry): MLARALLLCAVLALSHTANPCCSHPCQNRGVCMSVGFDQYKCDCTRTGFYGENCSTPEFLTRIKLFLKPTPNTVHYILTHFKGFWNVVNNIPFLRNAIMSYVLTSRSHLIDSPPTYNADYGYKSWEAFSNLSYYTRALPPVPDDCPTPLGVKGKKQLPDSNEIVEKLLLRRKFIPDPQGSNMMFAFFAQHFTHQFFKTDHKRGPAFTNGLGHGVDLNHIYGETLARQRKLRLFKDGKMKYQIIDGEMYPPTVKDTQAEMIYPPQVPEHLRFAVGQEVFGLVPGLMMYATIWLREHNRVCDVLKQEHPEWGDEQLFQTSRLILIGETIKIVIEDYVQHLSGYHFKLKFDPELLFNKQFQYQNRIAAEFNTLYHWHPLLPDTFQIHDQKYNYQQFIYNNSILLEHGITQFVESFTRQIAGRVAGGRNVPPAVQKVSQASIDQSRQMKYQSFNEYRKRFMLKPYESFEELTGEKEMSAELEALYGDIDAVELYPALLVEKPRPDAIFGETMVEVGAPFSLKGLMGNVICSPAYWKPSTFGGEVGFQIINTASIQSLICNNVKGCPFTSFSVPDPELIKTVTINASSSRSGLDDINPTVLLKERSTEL

[3] = molecular target: T3, Prostaglandin G/H synthase 1 (Ovis aries, UniProt P05979); experiment: Inhibition of ovine COX1 assessed as reduction in PGF2alpha level using arachidonic acid as substrate preincubated for 10 mins followed by substrate addition by ELISA
T3 sequence (P05979 whole entry): T1 sequence (P05979 whole entry)

[4] = molecular target: T4, Prostaglandin G/H synthase 2 (Homo sapiens, UniProt P35354); experiment: Inhibition of human COX2 assessed as reduction in PGF2alpha level using arachidonic acid as substrate preincubated for 10 mins followed by substrate addition by ELISA
T4 sequence (P35354 whole entry): T2 sequence (whole entry)

[5] = Selectivity index, ratio of IC50 for ovine COX1 to IC50 for human COX2
[6] = molecular target: T2, Prostaglandin G/H synthase 2 (Homo sapiens); experiment: Inhibition of COX2 in human MCF7 cells assessed as reduction in PGE2 level after 72 hrs by ELISA; type: cell-based
[7] = molecular target: T2, Prostaglandin G/H synthase 2 (Homo sapiens); experiment: Inhibition of COX2 in human MCF7 cells assessed as reduction in PGE2 level at 6.25 uM after 72 hrs by ELISA relative to control; type: cell-based
[8] = molecular target: T2, Prostaglandin G/H synthase 2 (Homo sapiens); experiment: Inhibition of COX2 in human MCF7 cells assessed as reduction in PGE2 level at 12.5 uM after 72 hrs by ELISA relative to control; type: cell-based
[9] = Solubility of the compound in DMEM culture medium at >12.5 uM; type: physicochemical
MCF7 [10] = experiment: Antiproliferative activity against human MCF7 cells up to 100 uM after 72 hrs by MTT assay relative to control; type: functional
MCF7 [11] = experiment: Antiproliferative activity against human MCF7 cells after 72 hrs by MTT assay; conditions: MCF7, 72 h

inhibition at 100 µM [1] [%] | inhibition [2] [%] | Compound | other results
15.7 | 5.38 | Oc1ccc(/C=C/c2cc[n+](Cc3ccc(Cl)cc3)cc2)cc1 | –
2.42 | 23.4 | CCOc1cccc(/C=C/c2ccc([N+](=O)[O-])cc2)c1 | –
1.57 | 10.2 | Oc1ccc(/C=C/c2cc[n+](Cc3ccccc3Cl)cc2)cc1 | –
28.3 | 34.1 | CC(=O)Oc1cccc(/C=C/c2ccc([N+](=O)[O-])cc2[N+](=O)[O-])c1 | –
6.09 | 29 | O=[N+]([O-])c1ccc(/C=C/c2ccc(O)cc2)c([N+](=O)[O-])c1 | –
22.2 | 37.1 | O=[N+]([O-])c1ccc(/C=C/c2ccc(O)cc2)cc1 | –
6.8 | 14.3 | Oc1ccc(/C=C/c2ccc(Br)cc2)cc1 | –
23.1 | 20.4 | Oc1cccc(/C=C/c2ccncc2)c1 | –
16.3 | 35 | O=[N+]([O-])c1ccc(/C=C/c2ccccc2)cc1 | –
15.4 | 27.5 | CCOc1cccc(/C=C/c2ccc([N+](=O)[O-])cc2[N+](=O)[O-])c1 | –
54.6 | 77.4 | CCOc1ccc(/C=C/c2ccc([N+](=O)[O-])cc2)cc1 | IC50 [3]: 85 µM; IC50 [4]: 4.02 µM; Ratio IC50 [5]: 21.2
28.5 | 44.5 | COC(=O)COc1ccc(/C=C/c2ccc(OCC(=O)OC)cc2)cc1 | –
11.2 | 21.9 | Oc1ccc(/C=C/c2cc[n+](Cc3cccc(Cl)c3)cc2)cc1 | –
9.64 | 3.73 | Oc1ccc(/C=C/c2ccc(Cl)cc2)cc1 | –
4.92 | 11.1 | Oc1ccc(/C=C/c2ccc(O)cc2)cc1 [TRANS-4,4'-DIHYDROXYSTILBENE] | –

The remaining lines, values behind:

Compound | inhibition at 100 µM [1] [%] | inhibition [2] [%] | other results
COc1ccc(/C=C/c2ccc([N+](=O)[O-])cc2)cc1OC | – | – | IC50 [3]: 0.659 µM; IC50 [4]: 4.69 µM; Ratio IC50 [5]: 0.14
CCOc1ccc(/C=C/c2ccc(Cl)cc2)cc1 | 39.2 | 12.3 | –
O=[N+]([O-])c1ccc(/C=C/c2ccc(OCc3ccccc3)cc2)cc1 | 3.36 | 15.7 | –
O=[N+]([O-])c1ccc(/C=C/c2cc(O)c(O)c(O)c2)cc1 | – | – | IC50 [3]: 17.5 µM; IC50 [4]: 0.279 µM; Ratio IC50 [5]: 62.8; inhibition [6]: Dose-dependent effect; inhibition [7]: 24.1%; inhibition [8]: 33.9%; solubility [9]: Insoluble; Activity (MCF7 [10]): 30%
COC(=O)COc1ccc(/C=C/c2ccc([N+](=O)[O-])cc2)cc1 | 59.6 | 66.3 | IC50 [3]: 40.8 µM; IC50 [4]: 7.46 µM; Ratio IC50 [5]: 4.13
Cc1ccc(-c2cc(C(F)(F)F)nn2-c2ccc(S(N)(=O)=O)cc2)cc1 [CELECOXIB] | – | – | IC50 (MCF7 [11]): 49.7 µM
Oc1ccccc1/C=C/c1ccncc1 | 9.71 | 8.56 | –
CCOc1ccc(/C=C/c2ccc([N+](=O)[O-])cc2[N+](=O)[O-])cc1 | 14.1 | 40.4 | –
CCOc1ccc(/C=C/c2ccccc2)cc1 | 32.3 | 40.8 | –
Oc1ccc(/C=C/c2ccncc2)cc1 | 17.3 | 8.88 | –
COC(=O)COc1ccc(/C=C/c2ccc(Cl)cc2)cc1 | 59.3 | 71.8 | IC50 [3]: 41 µM; IC50 [4]: 7.52 µM; Ratio IC50 [5]: 5.45
COc1cc(/C=C/c2ccc([N+](=O)[O-])cc2)cc(OC)c1OC | – | – | IC50 [3]: 2.67 µM; IC50 [4]: 2.17 µM; Ratio IC50 [5]: 1.23; Activity (MCF7 [10]): 30%
CC(=O)Oc1ccc(/C=C/c2ccccc2)cc1 | 20.5 | 39.9 | –
CC(=O)Oc1ccc(/C=C/c2ccc(OC(C)=O)cc2)cc1 | 3.16 | 23.4 | –
